# Values of other authors in PubChem BioAssay AID1259409 (Chemical Carcinogenesis Research Information System (CCRIS), 2018).
# Tested on: rodent chemically induced tumor inhibition, incidence and multiplicity
# Test: CCRIS tumor inhibitor studies
smiles,measurement,setting,value
Cc1cc(C(C)(C)C)c(O)c(C(C)(C)C)c1,"tumour outcome (control, treated, inhibition, significance)","Carcinogen: 1,2-DIMETHYLHYDRAZINE DIHYDROCHLORIDE, 306-37-6, Dose [Inhibitor]: 6600 PPM IN DIET FOR 23 WK (STUDY DURATION: 23 WK), Route [Inhibitor]: ORAL, Species: RAT, Strain/Sex: SPRAGUE-DAWLEY MALE, Target Tissue: Type of Lesion: CECUM: TUMOR, Dose [Carcinogen]: 30 MG/KG IN SALINE 1/WK FOR THE FIRST 9 WK OF STUDY (10 DOSES), SIMULTANEOUSLY WITH INHIBITOR, Promoter: NONE USED","1/10 (10%), 4/9 (44%), -340%, not calculated"
same,"tumour outcome (control, treated, inhibition, significance)","Carcinogen: 1,2-DIMETHYLHYDRAZINE DIHYDROCHLORIDE, 306-37-6, Dose [Inhibitor]: 6600 PPM IN DIET FOR 23 WK (STUDY DURATION: 23 WK), Route [Inhibitor]: ORAL, Species: RAT, Strain/Sex: SPRAGUE-DAWLEY MALE, Target Tissue: Type of Lesion: COLON: TUMOR, Dose [Carcinogen]: 30 MG/KG IN SALINE 1/WK FOR THE FIRST 9 WK OF STUDY (10 DOSES), SIMULTANEOUSLY WITH INHIBITOR, Promoter: NONE USED","10/10 (100%), 9/9 (100%), 0%, not calculated"
same,"tumour outcome (control, treated, inhibition, significance)","Carcinogen: 1,2-DIMETHYLHYDRAZINE DIHYDROCHLORIDE, 306-37-6, Dose [Inhibitor]: 6600 PPM IN DIET FOR 23 WK (STUDY DURATION: 23 WK), Route [Inhibitor]: ORAL, Species: RAT, Strain/Sex: SPRAGUE-DAWLEY MALE, Target Tissue: Type of Lesion: DUODENUM: TUMOR, Dose [Carcinogen]: 30 MG/KG IN SALINE 1/WK FOR THE FIRST 9 WK OF STUDY (10 DOSES), SIMULTANEOUSLY WITH INHIBITOR, Promoter: NONE USED","8/10 (80%), 5/9 (56%), 30%, not calculated"
same,"tumour outcome (control, treated, inhibition, significance)","Carcinogen: 1,2-DIMETHYLHYDRAZINE, 540-73-8, Dose [Inhibitor]: 0, 0.5% IN DIET BEGINNING 1 WK POST LAST CARCINOGEN DOSE AND CONTINUING FOR 36 WK (STUDY DURATION: 40 WK), Route [Inhibitor]: ORAL, Species: RAT, Strain/Sex: F344/MALE, Target Tissue: Type of Lesion: COLON: ADENOMA, Dose [Carcinogen]: 20 MG/KG 1/WK FOR 4 WK, Promoter: NONE USED","5/18 (28%), 4/19 (21%), 25%, not calculated"
same,"tumour outcome (control, treated, inhibition, significance)","Carcinogen: 1,2-DIMETHYLHYDRAZINE, 540-73-8, Dose [Inhibitor]: 0, 0.5% IN DIET BEGINNING 1 WK POST LAST CARCINOGEN DOSE AND CONTINUING FOR 36 WK (STUDY DURATION: 40 WK), Route [Inhibitor]: ORAL, Species: RAT, Strain/Sex: F344/MALE, Target Tissue: Type of Lesion: COLON: CARCINOMA, Dose [Carcinogen]: 20 MG/KG 1/WK FOR 4 WK, Promoter: NONE USED","7/18 (39%), 9/19 (48%), -23%, not calculated"
same,"tumour outcome (control, treated, inhibition, significance)","Carcinogen: 1,2-DIMETHYLHYDRAZINE, 540-73-8, Dose [Inhibitor]: 0, 250 MG/KG BW IN CORN OIL 1/D FOR 2 WK PRIOR TO FIRST CARCINOGEN DOSE THEN 3/WK FOR DURATION OF STUDY (STUDY DURATION:, Route [Inhibitor]: GAVAGE, Species: RAT, Strain/Sex: BD6/MALE, Target Tissue: Type of Lesion: INTESTINE: TUMOR, Dose [Carcinogen]: 20 MG/KG BW 1/WK FOR 20 WK, Promoter: NONE USED","100%, 100%, 0%, not significant"
same,"tumour outcome (control, treated, inhibition, significance)","Carcinogen: 1,2-DIMETHYLHYDRAZINE, 540-73-8, Dose [Inhibitor]: 0.5% IN DIET STARTING 2 WK PRIOR TO CARCINOGEN TREATMENT AND CONTINUING FOR DURATION OF STUDY (STUDY DURATION: 28 WK), Route [Inhibitor]: ORAL, Species: RAT, Strain/Sex: SPRAGUE-DAWLEY/MALE, Target Tissue: Type of Lesion: COLON: ADENOCARCINOMA, Dose [Carcinogen]: 20 MG/KG BW IN BACTERIOSTATIC SALINE 1/WK FOR 20 WK, Promoter: NONE USED","9/14 (64%), 3/7 (43%), 33%, not calculated"
same,"tumour outcome (control, treated, inhibition, significance)","Carcinogen: 1,2-DIMETHYLHYDRAZINE, 540-73-8, Dose [Inhibitor]: 0.75% IN DIET FOR LIFE BEGINNING AT 8 WK OF AGE (STUDY DURATION: 10 MO POST FIRST CARCINOGEN TREATMENT), Route [Inhibitor]: ORAL, Species: MOUSE, Strain/Sex: BALB/FEMALE, Target Tissue: Type of Lesion: LARGE INTESTINE: TUMOR, Dose [Carcinogen]: 20 MG/KG BW IN SALINE FOR 10 WK BEGINNING AT 11 WK OF AGE, Promoter: NONE USED","9/18 (50%), 15/25 (60%), -20%, not significant"
same,"tumour outcome (control, treated, inhibition, significance)","Carcinogen: 1,2-DIMETHYLHYDRAZINE, 540-73-8, Dose [Inhibitor]: 0.75% IN DIET FOR LIFE BEGINNING AT 8 WK OF AGE (STUDY DURATION: 10 MO POST FIRST CARCINOGEN TREATMENT), Route [Inhibitor]: ORAL, Species: MOUSE, Strain/Sex: BALB/MALE, Target Tissue: Type of Lesion: LARGE INTESTINE: TUMOR, Dose [Carcinogen]: 20 MG/KG BODY WEIGHT IN SALINE FOR 10 WK BEGINNING AT 11 WK OF AGE, Promoter: NONE USED","15/20 (75%), 12/35 (34%), 55%, p=0.0036"
same,"tumour outcome (control, treated, inhibition, significance)","Carcinogen: 2-ACETYLAMINOFLUORENE, 53-96-3, Dose [Inhibitor]: 0, 100 PPM IN DIET CONCURRENTLY WITH CARCINOGEN FOR STUDY DURATION (STUDY DURATION: 76 WK), Route [Inhibitor]: ORAL, Species: RAT, Strain/Sex: F344/MALE, Target Tissue: Type of Lesion: LIVER: HEPATOCELLULAR TUMOR, Dose [Carcinogen]: 50 PPM IN DIET FOR 76 WK","20/20 (100%), 18/18 (100%), 0%, not calculated"
same,"tumour outcome (control, treated, inhibition, significance)","Carcinogen: 2-ACETYLAMINOFLUORENE, 53-96-3, Dose [Inhibitor]: 0, 100 PPM IN SEMISYNTHETIC DIET CONCURRENTLY WITH CARCINOGEN FOR STUDY DURATION (STUDY DURATION: 76 WK), Route [Inhibitor]: ORAL, Species: RAT, Strain/Sex: F344/MALE, Target Tissue: Type of Lesion: BLADDER: CARCINOMA, Dose [Carcinogen]: 50 PPM IN DIET FOR 76 WK","1/17 (6%), 0/16 (0%), 100%, not calculated"
same,"tumour outcome (control, treated, inhibition, significance)","Carcinogen: 2-ACETYLAMINOFLUORENE, 53-96-3, Dose [Inhibitor]: 0, 100 PPM IN SEMISYNTHETIC DIET CONCURRENTLY WITH CARCINOGEN FOR STUDY DURATION (STUDY DURATION: 76 WK), Route [Inhibitor]: ORAL, Species: RAT, Strain/Sex: F344/MALE, Target Tissue: Type of Lesion: LIVER: HEPATOCELLULAR TUMORS, Dose [Carcinogen]: 50 PPM IN DIET FOR 76 WK","17/17 (100%), 16/16 (100%), 0%, not significant"
same,outcome,"Carcinogen: 2-ACETYLAMINOFLUORENE, 53-96-3, Dose [Inhibitor]: 0, 300 PPM IN DIET CONCURRENTLY WITH CARCINOGEN FOR STUDY DURATION (STUDY DURATION: 76 WK), Route [Inhibitor]: ORAL, Species: RAT, Strain/Sex: F344/MALE, Target Tissue: Type of Lesion: LIVER: ADENOMA, Dose [Carcinogen]: 50 PPM IN DIET FOR 76 WK","19.2, 13.4, 30%, p<0.05"
same,"tumour outcome (control, treated, inhibition, significance)","Carcinogen: 2-ACETYLAMINOFLUORENE, 53-96-3, Dose [Inhibitor]: 0, 300 PPM IN DIET CONCURRENTLY WITH CARCINOGEN FOR STUDY DURATION (STUDY DURATION: 76 WK), Route [Inhibitor]: ORAL, Species: RAT, Strain/Sex: F344/MALE, Target Tissue: Type of Lesion: LIVER: HEPATOCELLULAR TUMOR, Dose [Carcinogen]: 50 PPM IN DIET FOR 76 WK","20/20 (100%), 17/17 (100%), 0%, not calculated"
same,"tumour outcome (control, treated, inhibition, significance)","Carcinogen: 2-ACETYLAMINOFLUORENE, 53-96-3, Dose [Inhibitor]: 0, 1000 PPM IN DIET CONCURRENTLY WITH CARCINOGEN FOR STUDY DURATION (STUDY DURATION: 76 WK), Route [Inhibitor]: ORAL, Species: RAT, Strain/Sex: F344/MALE, Target Tissue: Type of Lesion: LIVER: HEPATOCELLULAR TUMOR, Dose [Carcinogen]: 50 PPM IN DIET FOR 76 WK","20/20 (100%), 19/19 (100%), 0%, not calculated"
